“And” between values parts separate entries of the source, which are not always exact repeats. Equal entries are not always repeated.
Molecular target: T1, recombinant PTP1B catalytic domain (Homo sapiens, UniProt P18031)
T1 construct: Recombinant PTP1B catalytic domain was expressed and purified according to a previous report; made in house
T1 sequence (P18031 3-277 limits assumed): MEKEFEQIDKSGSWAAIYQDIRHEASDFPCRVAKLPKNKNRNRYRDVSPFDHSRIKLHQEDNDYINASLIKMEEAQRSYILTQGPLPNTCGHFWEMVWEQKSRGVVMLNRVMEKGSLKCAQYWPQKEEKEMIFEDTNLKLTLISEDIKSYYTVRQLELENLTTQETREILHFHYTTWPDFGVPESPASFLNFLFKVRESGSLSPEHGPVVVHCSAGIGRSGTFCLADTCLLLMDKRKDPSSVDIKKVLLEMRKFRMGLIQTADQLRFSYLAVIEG
Assay: PTP1B inhibitory activity assay (pNPP hydrolysis)
Assay type: biochemical
Conditions: for PTP1B inhibitory activity (in words): in vitro, pNPP hydrolysis; for IC50: pNPP 2 mmol/L, 30 nmol/L recombinant PTP1B, MOPs pH 6.5, 30 °C, absorbance 405 nm, read-out: IC50 against PTP1B
Protocol: Recombinant PTP1B catalytic domain was expressed and purified according to a previous report. The enzymatic activities of the PTP1B catalytic domain were determined at 30 °C by monitoring the hydrolysis of pNPP. The dephosphorylation of pNPP generated product pNP, which was monitored at an absorbance of 405 nm by the EnVision multi label plate reader (Perkin Elmer Life Sciences, Boston, MA). In an atypical 100 µL assay mixture containing 50 mmol/L 3-[N-morpholino] propanesulfonic acid (MOPs), pH 6.5, 2 mmol/L pNPP, and 30 nmol/L recombinant PTP1B, activities were continuously monitored and the initial rate of hydrolysis was determined using the early linear region of the enzymatic reaction kinetic curve. The IC50 was calculated with Prism 4 software (Graphpad, San Diego, CA).

Structure (SMILES) | PTP1B inhibitory activity (in words) | IC50
CC1=CC[C@@H](O)[C@@]2(C)CC[C@H](/C(C)=C/C=C/C(C)(C)O)C[C@H]12 [Compound 7] | – | 75.5 µM and 72.4 µM
CC(=CC=CC(C)(C)O)C1CCC2(C)CCC=C(C)C2C1 (centres unmarked) [Compound 8, sinupol] | promising inhibitory activity | 63.9 µM
C=C[C@@]1(C)CC[C@H](/C(C)=C/C=C/C(C)(C)OC)C[C@@H]1C(=C)C [Compound 5, lobatetraene] | inactive | –
C=C[C@@]1(C)CC[C@H](/C(C)=C/C=C/C(C)(C)O)C[C@@H]1C(=C)C [Compound 6, fuscol] | inactive | –

Further lines, results first:

PTP1B inhibitory activity (in words) | IC50 | Structure (SMILES)
promising inhibitory activity | 51.8 µM | C=C1CCC=C(C)C(OC(C)=O)C(OC(C)=O)C(C(C)C)=CC2C(C)=CCC12 (centres unmarked) [Compound 9, sinulacetate]
inactive | – | CC1=CC=C(C(C)C)C(O)C(O)C(C)=CCCC(C)=CCC1 (centres unmarked) [Compound 10, sarcophytol B]

Source: article PMC5923390, “Further New Diterpenoids as PTP1B Inhibitors from the Xisha Soft Coral Sinularia polydactyla” (Marine Drugs, 2018)
